Experimental data as given in patent US20220395500A1, “SMALL MOLECULE ACTIVATORS OF INTERFERON REGULATORY FACTOR 3 AND METHODS OF USE THEREOF” (Neuralexo, Inc., priority 2020, published 2022).
Like-named read-outs stand apart in the source and are kept apart here.

Columns and labels:
[1] = test system: IRF-Lucia luciferase reporter (ISRE) in THP1-Dual cells; assay: THP1-Dual IRF-Lucia luciferase reporter assay (ISRE activation); type: cell-based, human; details: Homo sapiens, THP1-Dual, read-out: THP1 IRF EC50
Method: (§1) THP1 Dual (InvivoGen) cell suspensions were cultured in RPMI 1640 (Hyclone, Logan, Utah) supplemented with 10% fetal bovine serum (Hyclone), 100 U/mL Normocin (Invivogen), and 50 U/mL PenStrep (Gibco, Dublin, Ireland) between a density of 7·10^5-2·10^6 cells/mL. Every other passage, media was supplemented with 5 U/mL Blasticidin and 100 U/mL Zeocin to maintain the expression constructs. White, flat-bottom 384-well plates (Greiner, Kremsmunster, Austria, 781080) were seeded with 2.5·10^4 cells/well in a total of 50 μL media containing 5 ng/mL phorbolmyristic acid (PMA) using a Matrix WellMate (Thermo Scientific) dispenser. After 48 hours of incubation at 37° C., media was removed using a BioTek ELx405 CW plate washer set to aspirate and wash each well three times with 65 μL 1×PBS. Plates were reloaded with 50 μL media without PMA and treatments added. Lipopolysaccharide in dimethylsulfoxide (DMSO) was transferred to control wells using a HP D300 microdispenser to a final concentration of 313 ng/mL. Compounds from chemical library plates were copied using a Sciclone (Caliper LifeSciences) mounted with a 384-pin transfer tool to obtain a final concentration of 10 μM. After incubation with treatments for 24 hours, 10 μL of supernatant media from each well was transferred into a white, flat-bottom 384-well plate for luminescence readout and a black-walled, clear flat-bottom 384-well plate for absorbance readout.
(§2) Specifically, to enable screening of novel chemical entities (NCEs) in a larger screening effort, a robust high-throughput cell-based assay system for primary hit identification of ISRE activators based on the above-mentioned target validation was desired. Human ISRE activity was verified using a THP-1 monocyte line containing the NF-κB-SEAP and IRF-Lucia luciferase dual reporter (THP1-Dual; Invivogen) that features two reporter genes, SEAP (secreted embryonic alkaline phosphatase) and Lucia luciferase, thereby enabling the simultaneous study of the NF-κB and IRF signalling pathways. The Lucia luciferase reporter is under the control of an ISG54 (interferon-stimulated gene) minimal promoter in conjunction with five IFN-stimulated response elements. The SEAP gene is driven by an IFN-β minimal promoter fused to five copies of the NF-κB consensus transcriptional response element and three copies of the c-Rel binding site. Both reporter proteins are readily measurable in the cell culture supernatant when using QUANTI-LUC™ and QUANTI-Blue SEAP detection reagents.
The responsiveness of the human THP-1 Dual cell line was evaluated in an array of assay conditions to obtain sensitive and reproducible results for the activation of IRF and NF-κB reporters. […] All transfer steps are fully automated using high throughput robotic equipment. Briefly, cells are seeded in differentiation medium using a Matrix WellMate fitted with the WellMate Stacker (Thermo Scientific) and incubated at 37° C. with 5% CO2 for 48 h. Following differentiation, cells are washed using a BioTek ELx405 Select CW plate washer and growth medium added with the Matrix WellMate. Programmed control treatments are added to wells using a D300 digital dispenser fitted with T8+ dispense heads (Hewlett Packard) designed to dispense nanoliter quantities of material. Compounds from library plates are added using a pin tool fitted to a Sciclone ALH 3000 Workstation (Caliper Life Sciences) programmed with Maestro v4.4. After treatment, plates are returned to incubators for 24 hours. To measure reporter expression, supernatant is collected using the Sciclone and dispensed into 2 plates: 1) a white 384-well assay plate for Lucia luminescence measurements and 2) a clear-bottom black 384-well assay plate for SEAP absorbance measurements.

[2] = test system: IRF-Lucia luciferase reporter (ISRE) in J774-Dual cells; assay: J774-Dual IRF-Lucia luciferase reporter assay (ISRE activation); type: cell-based, mouse; details: for EC50: Mus musculus, read-out: J774 IRF EC50
Method: First, optimal assay conditions and assay quality in 384-well format were determined. As mentioned, the mouse macrophage J774 cell line (J774-Dual, InvivoGen) stably transfected with the same inducible reporters described above (e.g., IRF-Lucia luciferase and NF-κB-SEAP) was used. The responsiveness of the J774-Dual cell line was investigated in an array of assay conditions to obtain sensitive and reproducible results for the activation of the IRF and NF-κB reporters. An optimal plating density and conditions for these cells was established for these cells in a 384-well format. Assay work-flow is similar to that discussed above for the THP1-Dual assay without a need for cell differentiation. Thus, cells are seeded directly in growth medium and incubated at 37° C. in a 5% C02 incubator for 24 hours prior to the programmed treatments being added as described herein.
The primary high throughput screen used the HTS platform of human THP1 monocyte cells containing the IRF-Lucia luciferase and NFκB-SEAP (secreted embryonic alkaline phosphatase) dual reporter (THP1-Dual, Invivogen), enabling the simultaneous study of the IRF and NFκB signaling pathways respectively. As discussed, the Lucia luciferase reporter gene is under the control of an ISG54 (interferon-stimulated gene) minimal promoter in conjunction with five interferon-stimulated response elements (ISRE). The SEAP gene is driven by an IFNβ minimal promoter fused to five copies of the NFκB consensus transcriptional response element and three copies of the c-Rel binding site. Both IRF-Lucia luciferase and NFκB-SEAP reporter proteins are secreted and readily measurable in the cell culture supernatant when using QUANTI-Luc™ and QUANTI-Blue™ detection reagents, respectively. Identified “hits” were confirmed in a secondary screen with an 8-point dose response curve. Hits were further screened for activity in the mouse using the mouse J774 macrophage-like cell line containing the identical reporter constructs (J774-Dual, Invivogen).
The OTRADI Small Molecule Library of approximately 246,000 diverse compounds (see below for description) was screened using the THP1-Dual based HTS platform described above. All transfer steps in the screen are fully automated, thus reducing variability. Primary screening included a single data point or dose for each molecule. After data normalization was applied for each assay run, “hit” selection was performed on the plates that pass the quality control (QC) criterion. Hits were defined as samples having values above the activity cutoff determined based on noise level of the assay to reduce false positive rates. In the pilot study discussed above this activity value was >3σ above the ISRE mean with the added criteria of NFκB activation being lower than […] from the mean to identify IRF selective compounds. The ratio of ISRE:NFκB activity was also calculated as a selectivity index for prioritizing hit selection. Primary hits underwent secondary screening to determine the 50% effective concentration (EC50) and 50% cytotoxic concentration (CC50) of these agents using an 8-point dose-response curve in the human THP1-Dual cells. Cytotoxicity was measured in the plate using Cell Titer Glo (Promega). Identified candidate compounds were further screened (orthogonal screen) for cross species activity in the validated mouse J774-Dual assay using an 8-point dose-response format to determine EC50 and CC50 values as well as ISRE:NFκB ratios. A general process flow for the experimental design laid out above is depicted at FIG. 12.

[3] = THP1-Dual cytotoxicity (Cell Titer Glo, ATP); type: cell-based, human; details: human, THP1-Dual cells, read-out: Thp1 cytotox CC50
Procedure, shortened: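 CC50, the concentration killing half the cells, was derived from ATP-dependent CellTiter-Glo luminescence. Cells were THP1-Dual (human) and compound was tested as an 8-point dose-response series, with viability read in the same plate.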

J774-Dual cytotoxicity = type: cell-based, mouse; details: mouse, J774-Dual cells, read-out: J774 cytotox CC50
Procedure, shortened: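 CC50 derived from 8-point concentration series in mouse J774-Dual reporter cells, with viability read by CellTiter-Glo in the same plate. Run in parallel with EC50 and ISRE:NFκB ratio determination for cross-species confirmation.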

[4] = test system: NF-κB-SEAP reporter in THP1-Dual cells; assay: THP1-Dual NF-κB-SEAP reporter counterscreen; type: cell-based, human; details: Homo sapiens, THP1-Dual, read-out: THP1 NFkB EC50
Method: as §1, §2
Using the experimental design and data analysis outlined above, optimized assay conditions were obtained. The responsiveness of the human THP-1 Dual cell line was evaluated in an array of assay conditions to obtain sensitive and reproducible results for the activation of IRF and NF-κB reporters. An optimal plating density and differentiation protocol for these cells was established in a 384-well format. All transfer steps are fully automated using high throughput robotic equipment. Briefly, cells are seeded in differentiation medium using a Matrix WellMate fitted with the WellMate Stacker (Thermo Scientific) and incubated at 37° C. with 5% CO2 for 48 h. Following differentiation, cells are washed using a BioTek ELx405 Select CW plate washer and growth medium added with the Matrix WellMate. Programmed control treatments are added to wells using a D300 digital dispenser fitted with T8+ dispense heads (Hewlett Packard) designed to dispense nanoliter quantities of material. Compounds from library plates are added using a pin tool fitted to a Sciclone ALH 3000 Workstation (Caliper Life Sciences) programmed with Maestro v4.4. After treatment, plates are returned to incubators for 24 hours. To measure reporter expression, supernatant is collected using the Sciclone and dispensed into 2 plates: 1) a white 384-well assay plate for Lucia luminescence measurements and 2) a clear-bottom black 384-well assay plate for SEAP absorbance measurements. […]

[5] = Human Reporter Cell Line, 8-point dose response
[6] = J774, Mouse Reporter Cell Line, 8-point dose response
[7] = Mouse Reporter Cell Line J774, at peak
[8] = J774, Mouse Reporter Cell Line J774

| Structure (SMILES) | EC50 ([1]; Human Reporter Cell Line THP1) [µM] | J774 IRF % activation at peak [2, 7] [%] | EC50 [2, 8] [µM] | CC50 ([3]; Human Reporter Cell Line THP1) [µM] | CC50 (J774-Dual cytotoxicity; Mouse Reporter Cell Line J774) [µM] | other results |
| --- | --- | --- | --- | --- | --- | --- |
| Cc1cccc(C(=O)Nc2ccc(N3CCN(C(=O)c4cccs4)CC3)cc2)c1C [NA-6] |  |  |  |  |  | EC50 [1, 5]: 7.47 µM; J774 IRF % activation at peak ([2]; Mouse Reporter Cell Line): 22.78%; EC50 [2, 6]: 13.1 µM; CC50 ([3]; Human Reporter Cell Line): > 25 µM; CC50 (J774-Dual cytotoxicity; Mouse Reporter Cell Line): > 25 µM |
| O=C(Nc1ccc(N2CCN(C(=O)c3cccs3)CC2)cc1)c1ccc2ccccc2c1 [NA-7] |  |  |  |  |  | EC50 [1, 5]: 3.91 µM; J774 IRF % activation at peak ([2]; Mouse Reporter Cell Line): 5.638%; EC50 [2, 6]: 4.36 µM; CC50 ([3]; Human Reporter Cell Line): > 25 µM; CC50 (J774-Dual cytotoxicity; Mouse Reporter Cell Line): > 25 µM |
| CC(Oc1ccc(C(=O)Nc2ccc(N3CCN(C(=O)c4cccs4)CC3)cc2)cc1)c1ccccc1 (centres unmarked) [NA-22] |  |  |  |  |  | EC50 [4, 5]: ~2.62 µM; CC50 ([3]; Human Reporter Cell Line): > 25 µM; CC50 (J774-Dual cytotoxicity; Mouse Reporter Cell Line): > 25 µM |
| COc1ccc(NC(=O)c2cc(NC(=O)c3cccs3)ccc2N2CCOCC2)cc1Cl [NB-22] | 3.26 | 24.91 | 65 | > 25 | > 25 |  |
| COC(=O)COc1cccc(NC(=O)c2cccc(NC(=O)c3cccs3)c2)c1 [NC-4] |  |  |  |  |  | EC50 [1, 5]: 9.88 µM; J774 IRF % activation at peak ([2]; Mouse Reporter Cell Line): 6.428%; EC50 [2, 6]: ~5.88 µM; CC50 ([3]; Human Reporter Cell Line): > 25 µM; CC50 (J774-Dual cytotoxicity; Mouse Reporter Cell Line): > 25 µM |
| Cc1cc(C)c2c(N)c(C(=O)Nc3ccc4ccccc4c3)sc2n1 [ND-6] | 11.9 | 18.79 | ~7.27 | 49.8 | > 25 |  |
| COc1ccc(C(=O)Nc2cc(-c3nc4cc(Cl)ccc4o3)ccc2C)cc1[N+](=O)[O-] [ND-40] | 2.63 | 119.6 | 4.5 | 16.1 | > 25 |  |
| CCOc1ccc(C(=O)Nc2cc(-c3nc4ncccc4o3)ccc2C)cc1[N+](=O)[O-] [ND-48] | ~3.05 | 4.4 | 10 | 7.26 | > 25 |  |
| Cc1cccc([C@H](C)c2cnc[nH]2)c1C [ND-76] | ~0.716 |  |  | > 25 | > 25 |  |
| Cc1ccc(-c2nc3cc(OCCCCl)ccc3o2)cc1[N+](=O)[O-] [ND-81] |  | 23.19 | ~9.79 | > 25 | > 25 |  |
| Cc1ccc(-c2nc3cc(OCCCN4CCCC4)ccc3o2)cc1N [ND-82] |  | 22.57 | ~9.36 | > 25 | > 25 |  |
| COc1ccc2oc(-c3ccc(C)c([N+](=O)[O-])c3)nc2c1 [ND-84] | ~19.6 |  |  | > 25 | > 25 |  |
| COc1ccc(-c2nc3cc(C(C)C)ccc3o2)cc1NC(=O)c1cc(C)cc(C)c1 [ND-91] | ~5.87 |  |  | > 25 | > 25 |  |
| COc1cc2nc(-c3ccccc3)nc(N3CCN(CCN4CCCC4)CC3)c2cc1OC [ND-98] | 3.03 |  |  | 18.1 | 19.3 |  |
| Cc1ccc(C(=O)Nc2cc(-c3nc4ccccc4s3)ccc2C)c(C)c1 [ND-104] |  |  |  |  |  | EC50 ([4]; Human Reporter Cell Line THP1): 12.2 µM |
